According to patent publication US12522594B2, “2-heteroaryl-3-oxo-2,3-dihydropyridazine-4-carboxamides for the treatment of cancer” (Deutsches Krebsforschungszentrum, priority 2017, dated 2026):
“And” between values parts separate entries of the source, which are not always exact repeats. Identical values can stand only once.

Key:
B16F10-OVA cells [1] = experiment: In vivo assay: efficacy of an example compound and a PD-1/-L1 axis antagonist, B16F10-OVA tumor in C57/BL6N mice; parameters: species or system mouse; conditions: tumor volume treatment/control; single agent plus vehicle or isotype; AhR antagonist 30 mg/kg QD p.o.; aPDL1 (TPP-3911) 10 mg/kg q3d i.p.
Description: In Vivo Assay: Efficacy of Compositions Comprising an Example Compound and a PD-1/-L1 Axis Antagonist
Animals are ordered from Charles River Sulzfeld, Germany and assigned to the study at the age of 7 weeks. Animal husbandry, feeding and health conditions are according to animal welfare guidelines. B16F10-OVA cells are B16F10 mouse melanoma cells that were virally transduced to express ovalbumin. […] The antibiotic blasticidin is removed 1 passage before inoculation. Female C57/BL6N mice were inoculated with 100000 B16F100VA tumor cells in 50% medium/50% matrigel subcutaneously in the flank. After 5 days the animals were randomized and therapeutic treatment started.
The anti-PDL1 antibody is a chimera of the variable domain of atezolizumab with murine IgG1 CH1, 2 and 3 domains.

B16F10-OVA cells [2] = experiment: In vivo assay: efficacy of an example compound and a CTLA4 axis antagonist, B16F10-OVA tumor in C57/BL6J mice; parameters: species or system mouse; conditions: tumor volume treatment/control; single agent plus vehicle or isotype; AhR antagonist 30 mg/kg QD p.o.; aCTLA4 1 mg/kg q3d i.p.
Description: In Vivo Assay: Efficacy of Compositions Comprising an Example Compound and a CTLA4 Axis Antagonist
Animals are ordered from Charles River Sulzfeld, Germany and assigned to the study at the age of 8 weeks. Animal husbandry, feeding and health conditions are according to animal welfare guidelines. B16F10-OVA cells are B16F10 mouse melanoma cells that were virally transduced to express ovalbumin. B16F10-OVA cells were cultivated with RPMI 1640 with 10% FCS+2.5 μg/ml blasticidin and splitted at least 3 times before inoculation. The antibiotic blasticidin is removed 1 passage before inoculation. Female C57/BL6J mice were inoculated with 10000 B16F10-OVA tumor cells in 50% medium/50% matrigel subcutaneously in the flank. After 7 days the animals were randomized and therapeutic treatment started on day 8. The AhR antagonists were dissolved in Ethanol/Solutol/Water (10/40/50) and given at 30 mg/kg, QD, p.o. The anti-CTLA4 antibody was dosed at 1 mg/kg, q3d, i.p. The anti-CTLA4 antibody is mouse-specific with syrian hamster IgG1 isotype (Clone: 9H10 (anti mouse CTLA4), Fa. BioXCell BE0131). […]
Tumor size was measured using calipers determining length (a) and width (b). Tumor volume was calculated according to: […]
Based on tumor volume efficacy was calculated dividing tumor volume of the respective treatment group by tumor volume of the control group (T/C).

human monocytes = experiment: In vitro assay 4: rescue of TNFα production from human primary monocytes (LPS + KA); format: cell-based; conditions: one value per donor; for Individual Donors Conc of highest rescue: concentration (of 1, 0.3, 0.1 uM tested) at which highest TNFα rescue was observed; for Individual Donors % rescue TNFα normalised to ref cmpd: human monocytes, 10 ng/mL LPS + 200 uM KA, 18 hours, highest percent rescue relative to highest rescue with GNF-351
Description: In Vitro Assay 4: Rescue of TNFα Production from Human Primary Monocytes
The ability of the substances to enhance immune cell activity was determined. The substances were tested for their capacity to reverse KA-induced inhibition of TNFα production by LPS-stimulated human monocytes. Human monocytes were purified by negative selection from donor PBMCs using Miltenyi beads and seeded at 2×10^5 cells/well in complete growth medium (RPMI 1640, 10% FCS). Monocytes were incubated with 10 ng/mL LPS (O127:B8, #L4516, Sigma) and 200 uM KA (#3375, Sigma) and substances were added at concentrations of 1 uM, 0.3 uM and 0.1 uM and cultured for 18 hours. LPS alone served as the positive control. TNFα production in the supernatant was measured by Meso Scale Discovery immunoassay and the ability of the substances to rescue TNFα production was calculated as a percentage of LPS stimulation and KA-induced inhibition and normalized to the donor-specific response with the reference AHR antagonist compound GNF-351 (Smith et al., J Pharmacol Exp Ther, 2011, 338(1):318-27).

AHR [3] = target: T1, AHR (Homo sapiens, UniProt P35869); experiment: In vitro assay 3: AHR-regulated CYP1A1 expression in human cell line (U937, qPCR, KA stimulation); format: cell-based; conditions: U937 cells, 200 uM KA, 6 hours, CYP1A1 expression by qPCR; read-out: Assay 3: Hum CYP1A1 Antagonism IC50
T1 sequence (P35869 11-848): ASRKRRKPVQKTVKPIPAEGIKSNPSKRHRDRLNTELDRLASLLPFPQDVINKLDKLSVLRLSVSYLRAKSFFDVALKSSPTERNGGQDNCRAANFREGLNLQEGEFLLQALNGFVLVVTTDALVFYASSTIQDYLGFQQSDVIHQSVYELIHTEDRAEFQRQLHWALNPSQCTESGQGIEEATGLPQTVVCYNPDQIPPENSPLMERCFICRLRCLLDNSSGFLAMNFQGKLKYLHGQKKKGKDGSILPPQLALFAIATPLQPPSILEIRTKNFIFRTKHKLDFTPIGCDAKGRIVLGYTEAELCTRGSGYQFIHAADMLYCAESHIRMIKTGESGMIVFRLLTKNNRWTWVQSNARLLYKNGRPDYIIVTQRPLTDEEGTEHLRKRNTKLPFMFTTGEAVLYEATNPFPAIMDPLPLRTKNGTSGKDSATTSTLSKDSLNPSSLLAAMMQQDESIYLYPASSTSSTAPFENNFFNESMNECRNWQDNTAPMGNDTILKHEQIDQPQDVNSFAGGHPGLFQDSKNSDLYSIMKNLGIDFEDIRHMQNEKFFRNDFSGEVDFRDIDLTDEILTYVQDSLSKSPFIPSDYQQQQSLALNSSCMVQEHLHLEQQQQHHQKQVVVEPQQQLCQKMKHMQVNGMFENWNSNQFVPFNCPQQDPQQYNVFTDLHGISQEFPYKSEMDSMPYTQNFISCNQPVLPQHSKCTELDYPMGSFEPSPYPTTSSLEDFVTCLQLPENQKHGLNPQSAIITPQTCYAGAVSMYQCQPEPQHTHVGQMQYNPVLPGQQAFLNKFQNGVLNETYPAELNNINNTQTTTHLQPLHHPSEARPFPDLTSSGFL
Method in brief: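 U937 human monocytic cells were stimulated with 200 uM KA for 6 h, with or without compound at eight concentrations from 1 nM to 3 uM, in duplicate. CYP1A1 mRNA was quantified by Taqman qPCR as fold expression normalised to HPRT. Unstimulated cells served as negative control.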

AHR [4] = target: T1, AHR; experiment: In vitro assay 2: agonism in human cell line (transactivation assay, U87 cells, DRE firefly luciferase reporter); format: cell-based; parameters: host or cells: U87 glioblastoma cells, stably transfected with DRE firefly luciferase and renilla reporter constructs; conditions: no kynurenic acid, 20 hours, read-out: Assay 2: AHR-luc Hum Agonism IC50
Method in brief: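 Agonist readout: DRE firefly luciferase, with constitutive renilla reporter, in stably transfected U87 cells expressing AHR endogenously. Normalization used positive control (300 uM kynurenic acid) and negative control.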

AHR [5] = target: T1, AHR; experiment: In vitro assay 1: antagonism in human cell line (transactivation assay, U87 cells prestimulated with kynurenic acid, DRE firefly luciferase reporter); format: cell-based; parameters: host or cells: U87 glioblastoma cells, stably transfected with DRE firefly luciferase and renilla reporter constructs; conditions: 150 uM kynurenic acid, 20 hours, read-out: Assay 1: AHR-luc Hum Antagonism IC50
Method in brief: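 Antagonism measured after kynurenic acid prestimulation in U87 cells that express AHR endogenously and stably harbor a firefly luciferase gene under DRE control plus a constitutive renilla construct. Positive and negative controls served for normalization.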

`C[C@@H](CO)NC(=O)c1cc(-c2ccc(Cl)cc2)nn(-c2cnn(C)c2)c1=O` [Example 17, 6-(4-Chlorophenyl)-N-[(2S)-1-hydroxypropan-2-yl]-2-(1-methyl-1H-pyrazol-4-yl)-3-oxo-2,3-dihydropyridazine-4-carboxamide] was tested, and the T/C (B16F10-OVA cells [1]) was 0.92, the T/C (B16F10-OVA cells [2]) was 0.90 and the “Individual Donors Conc of highest rescue” value (human monocytes) was 1 µM. The “Individual Donors % rescue TNFα normalised to ref cmpd” value (human monocytes) was 438% and 296%.
With `Cn1cc(-n2nc(-c3ccc(OC(F)(F)F)cc3)cc(C(=O)N[C@H](CO)C(F)(F)F)c2=O)cn1` [Example 47, 2-(1-Methyl-1H-pyrazol-4-yl)-3-oxo-N-[(2R)-1,1,1-trifluoro-3-hydroxypropan-2-yl]-6-[4-(trifluoromethoxy)phenyl]-2,3-dihydropyridazine-4-carboxamide] the IC50 (AHR [3]) was 1.66 nM, the “Individual Donors Conc of highest rescue” value (human monocytes) was 1 µM and the “Individual Donors % rescue TNFα normalised to ref cmpd” value (human monocytes) was 68% and 64%. The IC50 (AHR [4]) was greater than 20000 nM and the IC50 (AHR [5]) was 1.52 nM.
In the case of `O=C(NC[C@@H](O)CO)c1cc(-c2ccc(C(F)(F)F)cc2)nn(-c2cccnc2)c1=O` [Example 113, N-[(2R)-2,3-Dihydroxypropyl]-3-oxo-2-(pyridin-3-yl)-6-[4-(trifluoromethyl)phenyl]-2,3-dihydropyridazine-4-carboxamide], the IC50 (AHR [3]) is reported as 105 nM, the “Individual Donors Conc of highest rescue” value (human monocytes) is reported as 1 µM and the “Individual Donors % rescue TNFα normalised to ref cmpd” value (human monocytes) is reported as 91% and 51%. It also gave an IC50 (AHR [4]) greater than 20000 nM and an IC50 (AHR [5]) of 48.3 nM.
For `O=C(NC[C@H](O)C(F)(F)F)c1cc(-c2ccc(OC(F)(F)F)cc2)nn(-c2cccnc2)c1=O` [Example 131, 3-Oxo-2-(pyridin-3-yl)-N-[(2S)-3,3,3-trifluoro-2-hydroxypropyl]-6-[4-(trifluoromethoxy)phenyl]-2,3-dihydropyridazine-4-carboxamide], the IC50 (AHR [3]) was 7.29 nM, the T/C (B16F10-OVA cells [2]) was 1.05 and the IC50 (AHR [4]) was greater than 20000 nM. It also gave an IC50 (AHR [5]) of 6.23 nM.
For `O=C(N[C@@H]1CCC[C@@H]1O)c1cc(-c2ccc(Cl)cc2)nn(-c2cccnc2)c1=O` [Example 138, 6-(4-Chlorophenyl)-N-[(1R,2S)-2-hydroxycyclopentyl]-3-oxo-2-(pyridin-3-yl)-2,3-dihydropyridazine-4-carboxamide], the IC50 (AHR [3]) was 7.61 nM, the “Individual Donors Conc of highest rescue” value (human monocytes) was 0.1 µM and 0.3 µM and the “Individual Donors % rescue TNFα normalised to ref cmpd” value (human monocytes) was 49% and 84%. The IC50 (AHR [4]) was greater than 20000 nM and the IC50 (AHR [5]) was 9.04 nM.
With `O=C(N[C@H]1CCC[C@H]1O)c1cc(-c2ccc(OC(F)(F)F)cc2)nn(-c2cccnc2)c1=O` [Example 147, N-[(1S,2R)-2-Hydroxycyclopentyl]-3-oxo-2-(pyridin-3-yl)-6-[4-(trifluoromethoxy)phenyl]-2,3-dihydropyridazine-4-carboxamide] the IC50 (AHR [3]) was 11.1 nM, the “Individual Donors Conc of highest rescue” value (human monocytes) was 0.1 µM and 0.3 µM and the “Individual Donors % rescue TNFα normalised to ref cmpd” value (human monocytes) was 50% and 89%. It also gave an IC50 (AHR [4]) greater than 20000 nM and an IC50 (AHR [5]) of 12.2 nM.
